Source: US20030095982A1, “Fraction of Cordyceps sinensis and method of isolation thereof” (priority 2001, published 2003)

Assays:
[1] = tested on: platelet aggregation induced by PAF; test: PAF induced rabbit platelet aggregation in vitro; format: cell-based; conditions: 0.625 mM; washed rabbit platelets; PAF 2 nM; preincubated 2 min
From the text: In terms of inhibition, PAF induced rabbit platelete aggregation is used as an index of PAF function inhibition. It was used as the first step in vitro screening method for identifying potential substances which are capable of inhibiting PAF function and may improve bronchial hyperresponsiveness in vivo.
Washed platelets were obtained from rabbits. In brief, rabbit blood was collected from the marginal ear vein into tubes containing one-sixth volume of acid-citrate-dextrose as anticoagulant. The blood was centrifuged at 200×g for 15 min at room temperature. The platelet-rich plasma was mixed with 1/40 volume of EDTA (final concentration 5 mM) and re-centrifuged at 1000×g for 12 min. The supernatant was discarded and the platelet pellet was suspended in modified Ca^2+-free Tyrode's buffer (137 mM NaCl, 2.8 mM KCl, 2 mM MgCl2, 0.33 mM NaH2PO4, 5 mM glucose, 10 mM HEPES) with 0.35% bovine serum albumin, heparin (50 unit/ml) and apyrase (1 unit/ml). Following incubation at 37° C. for 20 min, the washed platelet pellet was resuspended in Tyrode's buffer containing 1 mM Ca^2+. The platelet number were counted by using a hemocytometer and adjusted to 3.5×10^8 platelets/ml. […] Aggregation was measured by a turbidimetric method. […] The inhibitory activities of F-4 and F-8 on platelet aggregation induced by PAF were calculated according the equation: [formula]

[2] = tested on: ovalbumin (OA) induced bronchial hyperresponsiveness; test: Histological examination of lung tissue in asthma model; format: in vivo, brown Norway rats (BNR); conditions: prophylactic and therapeutic treatment
Procedure: After BAL, each animal's chest was opened and the lungs were removed. The trachea and right lower lobe was fixed in 10% formaldehyde, dehydrated by different concentrations of alcohol, then embedded in paraffin, and cut into 4 μm thicknesses, stained with haematoxylin and eosin, and examined by light microscope. Histologic specimens (n=6 per each time point) were prepared. The trachea and each lobe were fixed in 10% formaldehyde, dehydrated by different concentrations of alcohol, then embedded in paraffin, and cut into 4 μm thicknesses; stained with haematosylin and eosin, and examined by light microscope for evaluation of the severity of inflammation. Each trachea and lung section was blindly assigned an inflammation score by two pathologists as follows; 1=rare or occasional inflammation cells scattered through the lung or trachea; 3=abundant inflammatory cells scattered through the lung or trachea; 2=inflammatory cells between the levels of 1 and 3. The total inflammation score for each animal was calculated as mean of the scores for 5 lung sections and trachea.

[3] = tested on: ovalbumin (OA) induced bronchial hyperresponsiveness; test: Bronchoalveolar lavage cell counts, OA model in BALBc mice; format: in vivo
Procedure: After completion of the pulmonary function tests, BAL was performed using 1 mL normal saline twice (total 2 mL). The BAL fluid was collected into plastic flasks containing 1,500 units of heparin and then strained through 1 layer of surgical gauze and centrifuged at 500 g for 5 min. The cell pellet was washed 3 times with sterile saline solution and resuspended in RPMI-1640. A small portion was taken for evaluation of cell number and viability, as assessed by trypan blue exclusion.
Differential counts were obtained using a cytocentrifuge preparation (Cytospin; Shandon Southern Instruments, Sewickley, Pa.) stained with Liu's stain (modified May-Giemsa stain).

[4] = BAL fluid, BALBc mice, 4 mg/Kg intraperitoneally 30 minutes before OA inhalation provocation

Compound: CC(C)[C@@H](C)C=C[C@@H](C)[C@H]1CC[C@H]2C3=C[C@@H](O)[C@@]4(O)C[C@@H](O)CC[C@]4(C)[C@H]3CC[C@]12C [F8, (24R)-ergosta-7,22-diene-3β, 5α, 6β,-triol]
- Inhibitory Activity (%) [1]: 97±2.6%
- pulmonary histological change [2]: improve pulmonary histological change
- Eosinophil Cell count [3, 4]: 0.12 ± 0.04 (×10^4)/mL
- Eosinophil Percentage of total cell count (%) [3, 4]: 6.3 ± 1.6 %
- Lymphocyte Cell count [3, 4]: 0.10 ± 0.04 (×10^4)/mL
- Lymphocyte Percentage of total cell count (%) [3, 4]: 5.2 ± 1.6 %
- Macrophage Cell count [3, 4]: 1.82 ± 0.21 (×10^4)/mL
- Macrophage Percentage of total cell count (%) [3, 4]: 84.2 ± 3.4 %
- Neutrophil Cell count [3, 4]: 0.13 ± 0.03 (×10^4)/mL
- Neutrophil Percentage of total cell count (%) [3, 4]: 5.1 ± 1.0 %
- Total cell count [3, 4]: 2.23 ± 0.64 (×10^4)/mL
- BAL total cell counts, eosinophils and lymphocytes versus group II ([3]; mice, treatment study (administered after OA challenge)): Group II had higher total cell counts than other 2 groups
